Data reported in patent publication US8304234B2, “Compositions and methods for delivery of genetic material” (The Trustees of the Universtiy of Pennsylvania, priority 1993, dated 2012).

B1: GA733 protein: GA733 protein administered to control animals (protein, UniProt P16422 24-314, looked up)
Epithelial cell adhesion …: QEECVCENYKLAVNCFVNNNRQCQCTSVGAQNTVICSKLAAKCLVMKAEMNGSKLGRRAKPEGALQNNDGLYDPDCDESGLFKAKQCNGTSMCWCVNTAGVRRTDKDTEITCSERVRTYWIIIELKHKAREKPYDSKSLRTALQKEITTRYQLDPKFITSILYENNVITIDLVQNSSQKTQNDVDIADVAYYFEKDVKGESLFHSKKMDLTVNGEQLDLDPGQTLIYYVDEKAPEFSMQGLKAGVIAVIVVVVIAVVAGIVVLVISRKKRMAKYEKAEIKEMGEMHRELNA

Assays:
[1] = test system: tumor cells transfected with DNA encoding neu; assay: Tumor challenge model, tumor cells transfected with DNA encoding neu
Excerpt: In experiments designed to compare the immunogenic response elicited by genetic vaccination and protein vaccination, animal models were designed using tumor cells that specifically express a foreign target protein. Three immune competent mouse models have been developed which express foreign antigens. Three clonal tumor cell lines which are derived from the Balb/c mouse strain are used. […] Subclones have been selected which can display foreign antigens in an unrecognized form. […] Using these models, the immune response elicited by genetic vaccination against an antigen can be measured.
A DNA construct was designed to test the effectiveness of a genetic vaccine against human p185neu in mice. […] The animal model used was described above. Tumor cells were transfected with DNA encoding neu, confirmed to express the protein and implanted into the animal. Controls included untransfected tumor lines.
Controls included unvaccinated animals and animals administered the p185neu protein.

[2] = test system: tumor cells transfected with DNA encoding GA733; assay: Tumor challenge model, tumor cells transfected with DNA encoding GA733
Excerpt: Using these models, the immune response elicited by genetic vaccination against an antigen can be measured.
A DNA construct was designed to test the effectiveness of a genetic vaccine against human GA733 in mice. […] The animal model used was described above. Tumor cells were transfected with DNA encoding GA733, confirmed to express the protein and implanted into the animal. Controls included untransfected tumor lines.
Genetically immunized animals were vaccinated with plasmid pGA733-2, described in Example 14, following the method described above. Controls included unvaccinated animals and animals administered the GA733 protein.

| Molecule | effect on transfected tumors ([1]; neu-transfected tumors, vaccinated mice) | effect on mortality ([1]; vaccinated mice bearing tumors) | effect on transfected tumors ([2]; GA733-transfected tumors, vaccinated mice) | effect on mortality ([2]; vaccinated mice bearing tumors) |
| --- | --- | --- | --- | --- |
| p185 protein: p185neu protein administered to control animals | some reduction in tumor size | no effect on mortality | – | – |
| B1 | – | – | some reduction in tumor size | no effect on mortality |
